Reference: patent US9855230B2 (ViiV Healthcare UK (No. 5) Limited, priority 2014, dated 2018)
Structures can show the parent of a compound that is named as a salt. Where two headings read alike, the source gives them in different places.

How the values were obtained:
[1] = system: recombinant NL4-3 virus (nef section replaced with Renilla luciferase gene) in MT-2 cells; experiment: whole plant or invertebrate; format: cell-based, HIV; conditions: NL43, luciferase activity in MT-2 cells infected 4-5 days with recombinant NL4-3 virus
Source text: A recombinant NL4-3 proviral clone, in which a section of the nef gene was replaced with the Renilla luciferase gene, was used to make the reference virus used in these studies.
Supernatent was harvested after 2-3 days and the amount of virus present was titered in MT-2 cells using luciferase enzyme activity as a marker by measuring luciferase enzyme activity. Luciferase was quantitated using the EnduRen Live Cell Substrate from Promega (Madison, Wis.). Antiviral activities of compounds toward the recombinant virus were quantified by measuring luciferase activity in MT-2 cells infected for 4-5 days with the recombinant virus in the presence of serial dilutions of the compound.

[2] = Compound cytotoxicity (CC50), XTT-based colorimetric assay; format: cell-based; conditions: human; uninfected MT2 cells, day 4, XTT assay
Procedure: Compound cytotoxicity and the corresponding CC50 values were determined using the same protocol as described in the antiviral assay except that uninfected cells were used. Cytotoxicity was assessed on day 4 in uninfected MT2 cells by using a XTT (2,3-bis[2-Methoxy-4-nitro-5-sulfophenyl]-2H-tetrazolium-5-carboxyanilide inner salt)-based colorimetric assay (Sigma-Aldrich, St Louis, Mo.).

In the case of `COc1ccc(-n2ccnc2C(Cc2cc(F)cc(F)c2)NC(=O)NS(=O)(=O)c2ccccc2F)cc1` (racemic) [Example 84, (rac)-N-((2-(3,5-difluorophenyl)-1-(1-(4-methoxyphenyl)-1H-imidazol-2-yl)ethyl)carbamoyl)-2-fluorobenzenesulfonamide], the EC50 ([1]; read-out: Activity) is reported as 100 to 1000 nM, the EC50 ([1]; read-out: EC50) is reported as 690 nM and the CC50 at 4 day [2] is reported as over 100 µM.
Molecule `COc1ccc(-c2c(C(Cc3ccccc3)NC(=O)NS(=O)(=O)c3ccccc3C)nnn2C)cc1` (racemic) [Example 87, (rac)-N-((1-(5-(4-methoxyphenyl)-1-methyl-1H-1,2,3-triazol-4-yl)-2-phenylethyl)carbamoyl)-2-methylbenzenesulfonamide] has an EC50 ([1]; read-out: Activity) of 100 to 1000 nM, an EC50 ([1]; read-out: EC50) of 220 nM and a CC50 at 4 day [2] of over 100 µM.
In the case of `O=C(NC(Cc1ccccc1)c1ncccc1-c1ccc2ccncc2c1)NS(=O)(=O)c1ccccc1Cl` (stereo in doubt) [Example 108, (S)-2-chloro-N-((1-(3-(isoquinolin-7-yl)pyridin-2-yl)-2-phenylethyl)carbamoyl)benzenesulfonamide, 2 TFA], the EC50 ([1]; read-out: Activity) is reported as over 1000 nM, the EC50 ([1]; read-out: EC50) is reported as 20000 nM and the CC50 at 4 day [2] is reported as over 100 µM.
Molecule `O=C(NC(Cc1cc(F)cc(F)c1)c1ncccc1Br)NS(=O)(=O)c1ccccc1Cl` (stereo in doubt) [Example 113, (S)-N-((1-(3-bromopyridin-2-yl)-2-(3,5-difluorophenyl)ethyl)carbamoyl)-2-chlorobenzenesulfonamide, TFA] has an EC50 ([1]; read-out: Activity) of over 1000 nM and a CC50 at 4 day [2] of over 100 µM.
Work on `COc1ccc(-c2cccnc2C(Cc2cc(F)cc(F)c2)NC(=O)NS(=O)(=O)c2ccccc2Cl)cc1` (stereo in doubt) [Example 114, (S)-2-chloro-N-((2-(3,5-difluorophenyl)-1-(3-(4-methoxyphenyl)pyridin-2-yl)ethyl)carbamoyl)benzenesulfonamide, TFA] yielded an EC50 ([1]; read-out: Activity) of over 1000 nM, an EC50 ([1]; read-out: EC50) of 34400 nM and a CC50 at 4 day [2] of over 100 µM.
Work on `COc1ccc(-n2ccnc2[C@H](Cc2ccccc2)NC(=O)NS(=O)(=O)c2ccccc2C)cc1` [Example 1, (S)-N-((1-(1-(4-methoxyphenyl)-1H-imidazol-2-yl)-2-phenylethyl)carbamoyl)-2-methylbenzene-sulfonamide] yielded an EC50 ([1]; read-out: Activity) of under 100 nM and a CC50 at 4 day [2] of over 100 µM.
Work on `COC(=O)Nc1ccc(-n2ccnc2[C@H](Cc2ccccc2)NC(=O)NS(=O)(=O)c2ccccc2C)cc1` [Example 2, (S)-methyl (4-(2-(2-phenyl-1-(3-(o-tolylsulfonyl)ureido)ethyl)-1H-imidazol-1-yl)phenyl)carbamate] yielded an EC50 ([1]; read-out: Activity) of under 100 nM and a CC50 at 4 day [2] of over 100 µM.
In the case of `COC(=O)Nc1ccc(-n2ccnc2[C@H](Cc2ccccc2)NC(=O)NS(=O)(=O)c2cccc3ccccc23)cc1` [Example 3, (S)-methyl (4-(2-(1-(3-(naphthalen-1-ylsulfonyl)ureido)-2-phenylethyl)-1H-imidazol-1-yl)phenyl)carbamate], the EC50 ([1]; read-out: Activity) is reported as 100 to 1000 nM, the EC50 ([1]; read-out: EC50) is reported as 100 nM and the CC50 at 4 day [2] is reported as over 100 µM.
Work on `Cc1ccccc1S(=O)(=O)NC(=O)N[C@@H](Cc1ccccc1)c1nccn1-c1cccc(-n2cccc2)c1` [Example 4, (S)-N-((1-(1-(3-(1H-pyrrol-1-yl)phenyl)-1H-imidazol-2-yl)-2-phenylethyl)carbamoyl)-2-methyl-benzenesulfonamide] yielded an EC50 ([1]; read-out: Activity) of over 1000 nM and a CC50 at 4 day [2] of over 100 µM.
In the case of `Cc1ccccc1S(=O)(=O)NC(=O)N[C@@H](Cc1ccccc1)c1nccn1-c1ccc(F)cc1` [Example 5, (S)-N-((1-(1-(4-fluorophenyl)-1H-imidazol-2-yl)-2-phenylethyl)carbamoyl)-2-methylbenzenesulfonamide], the EC50 ([1]; read-out: Activity) is reported as 100 to 1000 nM and the CC50 at 4 day [2] is reported as over 100 µM.
In the case of `COc1ccc(-n2ccnc2[C@H](Cc2ccccc2)NC(=O)NS(=O)(=O)c2ccccc2Cl)cc1` [Example 6, (S)-2-chloro-N-((1-(1-(4-methoxyphenyl)-1H-imidazol-2-yl)-2-phenylethyl)carbamoyl)benzenesulfonamide], the EC50 ([1]; read-out: Activity) is reported as under 100 nM, the EC50 ([1]; read-out: EC50) is reported as 50 nM and the CC50 at 4 day [2] is reported as over 100 µM.
With `CCOc1ccc(-n2ccnc2[C@H](Cc2ccccc2)NC(=O)NS(=O)(=O)c2ccccc2C)cc1` [Example 7, (S)-N-((1-(1-(4-ethoxyphenyl)-1H-imidazol-2-yl)-2-phenylethyl)carbamoyl)-2-methylbenzenesulfonamide] the EC50 ([1]; read-out: Activity) was under 100 nM and the CC50 at 4 day [2] was over 100 µM.
In the case of `COc1ccc(-n2ccnc2[C@H](Cc2ccccc2)NC(=O)NS(=O)(=O)c2ccccc2C)c(C)c1` [Example 8, (S)-N-((1-(1-(4-methoxy-2-methylphenyl)-1H-imidazol-2-yl)-2-phenylethyl)carbamoyl)-2-methylbenzenesulfonamide], the EC50 ([1]; read-out: Activity) is reported as 100 to 1000 nM and the CC50 at 4 day [2] is reported as over 100 µM.
In the case of `COc1cccc(-n2ccnc2[C@H](Cc2ccccc2)NC(=O)NS(=O)(=O)c2ccccc2C)c1` [Example 9, (S)-N-((1-(1-(3-methoxyphenyl)-1H-imidazol-2-yl)-2-phenylethyl)carbamoyl)-2-methylbenzenesulfonamide], the EC50 ([1]; read-out: Activity) is reported as under 100 nM, the EC50 ([1]; read-out: EC50) is reported as 50 nM and the CC50 at 4 day [2] is reported as over 100 µM.
`COc1ccc(-n2ccnc2[C@H](Cc2ccccc2)NC(=O)NS(=O)(=O)c2ccccc2C)cc1OC` [Example 10, (S)-N-((1-(1-(3,4-dimethoxyphenyl)-1H-imidazol-2-yl)-2-phenylethyl)carbamoyl)-2-methylbenzenesulfonamide] gave an EC50 ([1]; read-out: Activity) of under 100 nM and a CC50 at 4 day [2] of over 100 µM.
`Cc1ccccc1S(=O)(=O)NC(=O)N[C@@H](Cc1ccccc1)c1nccn1-c1ccc(OC(F)(F)F)cc1` [Example 11, (S)-2-methyl-N-((2-phenyl-1-(1-(4-(trifluoromethoxy)phenyl)-1H-imidazol-2-yl)ethyl)carbamoyl)benzenesulfonamide] showed an EC50 ([1]; read-out: Activity) of under 100 nM and a CC50 at 4 day [2] of 59 µM.
`Cc1ccccc1S(=O)(=O)NC(=O)N[C@@H](Cc1ccccc1)c1nccn1-c1cccc(Cl)c1` [Example 12, (S)-N-((1-(1-(3-chlorophenyl)-1H-imidazol-2-yl)-2-phenylethyl)carbamoyl)-2-methylbenzenesulfonamide] gave an EC50 ([1]; read-out: Activity) of under 100 nM, an EC50 ([1]; read-out: EC50) of 50 nM and a CC50 at 4 day [2] of over 100 µM.
With `Cc1ccc(-n2ccnc2[C@H](Cc2ccccc2)NC(=O)NS(=O)(=O)c2ccccc2C)cc1` [Example 13, (S)-2-methyl-N-((2-phenyl-1-(1-(p-tolyl)-1H-imidazol-2-yl)ethyl)carbamoyl)benzenesulfonamide] the EC50 ([1]; read-out: Activity) was under 100 nM and the CC50 at 4 day [2] was over 100 µM.
Molecule `Cc1ccccc1S(=O)(=O)NC(=O)N[C@@H](Cc1ccccc1)c1nccn1-c1ccc(Cl)cc1` [Example 14, (S)-N-((1-(1-(4-chlorophenyl)-1H-imidazol-2-yl)-2-phenylethyl)carbamoyl)-2-methylbenzenesulfonamide] has an EC50 ([1]; read-out: Activity) of 100 to 1000 nM and a CC50 at 4 day [2] of over 100 µM.
For `Cc1ccccc1S(=O)(=O)NC(=O)N[C@@H](Cc1ccccc1)c1nccn1-c1ccc(Br)cc1` [Example 15, (S)-N-((1-(1-(4-bromophenyl)-1H-imidazol-2-yl)-2-phenylethyl)carbamoyl)-2-methylbenzenesulfonamide], the EC50 ([1]; read-out: Activity) was 100 to 1000 nM, the EC50 ([1]; read-out: EC50) was 190 nM and the CC50 at 4 day [2] was over 100 µM.
`COc1ccccc1-n1ccnc1[C@H](Cc1ccccc1)NC(=O)NS(=O)(=O)c1ccccc1C` [Example 16, (S)-N-((1-(1-(2-methoxyphenyl)-1H-imidazol-2-yl)-2-phenylethyl)carbamoyl)-2-methylbenzenesulfonamide] gave an EC50 ([1]; read-out: Activity) of over 1000 nM and a CC50 at 4 day [2] of over 100 µM.
`C=CCOc1cccc(-n2ccnc2[C@H](Cc2ccccc2)NC(=O)NS(=O)(=O)c2ccccc2C)c1` [Example 17, (S)-N-((1-(1-(3-(allyloxy)phenyl)-1H-imidazol-2-yl)-2-phenylethyl)carbamoyl)-2-methylbenzenesulfonamide] showed an EC50 ([1]; read-out: Activity) of 100 to 1000 nM and a CC50 at 4 day [2] of over 33 µM.
In the case of `Cc1ccccc1S(=O)(=O)NC(=O)N[C@@H](Cc1ccccc1)c1nccn1-c1ccc2c(c1)CCO2` [Example 18, (S)-N-((1-(1-(2,3-dihydrobenzofuran-5-yl)-1H-imidazol-2-yl)-2-phenylethyl)carbamoyl)-2-methylbenzenesulfonamide], the EC50 ([1]; read-out: Activity) is reported as under 100 nM, the EC50 ([1]; read-out: EC50) is reported as 10 nM and the CC50 at 4 day [2] is reported as over 100 µM.
In the case of `Cc1ccccc1S(=O)(=O)NC(=O)N[C@@H](Cc1ccccc1)c1nccn1-c1cccc(OC(F)(F)F)c1` [Example 19, (S)-2-methyl-N-((2-phenyl-1-(1-(3-(trifluoromethoxy)phenyl)-1H-imidazol-2-yl)ethyl)carbamoyl)benzenesulfonamide], the EC50 ([1]; read-out: Activity) is reported as 100 to 1000 nM and the CC50 at 4 day [2] is reported as over 33 µM.
Work on `Cc1ccccc1S(=O)(=O)NC(=O)N[C@@H](Cc1ccccc1)c1nccn1-c1cccc(Br)c1` [Example 20, (S)-N-((1-(1-(3-bromophenyl)-1H-imidazol-2-yl)-2-phenylethyl)carbamoyl)-2-methylbenzenesulfonamide] yielded an EC50 ([1]; read-out: Activity) of under 100 nM and a CC50 at 4 day [2] of over 33 µM.
With `Cc1ccccc1S(=O)(=O)NC(=O)N[C@@H](Cc1ccccc1)c1nccn1-c1ccc(OC(C)C)cc1` [Example 21, (S)-N-((1-(1-(4-isopropoxyphenyl)-1H-imidazol-2-yl)-2-phenylethyl)carbamoyl)-2-methylbenzenesulfonamide] the EC50 ([1]; read-out: Activity) was under 100 nM, the EC50 ([1]; read-out: EC50) was 50 nM and the CC50 at 4 day [2] was over 100 µM.
`Cc1ccccc1S(=O)(=O)NC(=O)N[C@@H](Cc1ccccc1)c1nccn1-c1ccc2c(c1)OCCO2` [Example 22] showed an EC50 ([1]; read-out: Activity) of 100 to 1000 nM and a CC50 at 4 day [2] of over 100 µM.
`Cc1cccc(-n2ccnc2[C@H](Cc2ccccc2)NC(=O)NS(=O)(=O)c2ccccc2C)c1` [Example 23, (S)-2-methyl-N-((2-phenyl-1-(1-(m-tolyl)-1H-imidazol-2-yl)ethyl)carbamoyl)benzenesulfonamide] gave an EC50 ([1]; read-out: Activity) of under 100 nM and a CC50 at 4 day [2] of over 100 µM.
